Results taken from PMC3914891, “Pentacyclic Nitrofurans with In Vivo Efficacy and Activity against Nonreplicating Mycobacterium tuberculosis” (PLoS ONE, 2014).
Values after ≈ are worked out from the molar mass of the structure shown. Read-outs that look alike come from different tables or passages of the source.

Tests used:
[1] = tested on: Streptococcus pneumoniae (R6); assay: MIC, spectrum of activity: S.pn; format: cell-based; conditions: read-out: Minimum Inhibitory Concentration, S. Pn.
[2] = tested on: Staphylococcus aureus (NRS70); assay: MIC, spectrum of activity: MRSA; format: cell-based; conditions: read-out: Minimum Inhibitory Concentration, MRSA
[3] = tested on: Escherichia coli (ATCC 700926); assay: MIC, spectrum of activity: E.c.; format: cell-based; conditions: ATCC700926, read-out: Minimum Inhibitory Concentration, E.c.
[4] = tested on: Bacillus anthracis sterne 34F2; assay: microbe, parasite or virus in culture; format: cell-based; conditions: STERNE34F2, read-out: Minimum Inhibitory Concentration, B.a.
M. tuberculosis = assay: MIC determination, microbroth dilution, M. tuberculosis; format: cell-based, Mycobacterium tuberculosis; conditions: Mycobacterium tuberculosis
[5] = tested on: Streptococcus pyogenes (ATCC 700294); assay: MIC, spectrum of activity: S.py; format: cell-based; conditions: ATCC700294, read-out: Minimum Inhibitory Concentration, S. Py.
[6] = tested on: Stenotrophomonas maltophilia (ATCC 13637); assay: MIC, spectrum of activity: S.m.; format: cell-based; conditions: ATCC13637, read-out: Minimum Inhibitory Concentration, S.m.
in vitro [7] = conditions: mouse, microsomes
in vitro [8] = conditions: mouse, plasma
[9] = tested on: Burkholderia cepacia (ATCC 25416); assay: MIC, spectrum of activity: B.c.; format: cell-based; conditions: ATCC25416, read-out: Minimum Inhibitory Concentration, B.c.
physchem = conditions: pH 7.4, aqueous buffer
E. coli K12 ∆tolC = format: cell-based; conditions: E. coli K12 ∆tolC (efflux pump deficient)
[10] = tested on: Staphylococcus aureus (ATCC 29213); assay: MIC, spectrum of activity: S.a.; format: cell-based; conditions: ATCC29213, read-out: Minimum Inhibitory Concentration, S.a
[11] = tested on: Bacillus subtilis (ATCC 23857); assay: MIC, spectrum of activity: B.s.; format: cell-based; conditions: ATCC23857, read-out: Minimum Inhibitory Concentration, B.s.
[12] = In vitro cytotoxicity against Vero cells; conditions: African green monkey, Vero cells (kidney epithelial cells, ATCC CCL-81)
Vero cells = assay: In vitro cytotoxicity against Vero cells
[13] = tested on: Enterococcus faecalis (ATCC 33186); assay: MIC, spectrum of activity: E.f.; format: cell-based; conditions: ATCC33186, read-out: Minimum Inhibitory Concentration, E.f.
in vivo = conditions: male, Sprague-Dawley, rat
[14] = male, Sprague-Dawley, rat, in vivo
[15] = rats; IV 10 mg/kg and oral 100 mg/kg
[16] = tested on: M. tuberculosis strain H37Rv; assay: Checkerboard synergy assay; format: cell-based, Mycobacterium tuberculosis; conditions: for MIC: Mycobacterium tuberculosis, H37RV, 168 h, read-out: MIC Alone
M. tuberculosis H37Rv = assay: Minimum bactericidal concentration determination; format: cell-based, Mycobacterium tuberculosis
[17] = tested on: M. abscessus (ATCC 19977); assay: MIC, non-tuberculosis mycobacteria: M. abscessus; format: cell-based; conditions: Mycobacteroides abscessus, ATCC19977, 72 h, read-out: Minimum Inhibitory Concentration, M. abscessus
M. avium (ATCC 25291) = assay: MIC, non-tuberculosis mycobacteria: M. avium; format: cell-based; conditions: Mycobacterium avium, ATCC25291, 168 h; broth dilution, visual inspection, 7 days; read-out: Minimum Inhibitory Concentration, M. avium
M. kansasii (ATCC 12478) = assay: MIC, non-tuberculosis mycobacteria: M. kansasii; format: cell-based; conditions: Mycobacterium kansasii, ATCC12478, 168 h; broth dilution, visual inspection, 7 days; read-out: Minimum Inhibitory Concentration, M. kansasii
M. fortuitum (ATCC 6841) = assay: MIC, non-tuberculosis mycobacteria: M. fortuitum; format: cell-based; conditions: Mycolicibacterium fortuitum, ATCC6841, 72 h; broth dilution, visual inspection, 3 days; read-out: Minimum Inhibitory Concentration, M. fortuitum

SMILES	MIC [1]	MIC [2]	MIC [3]	MIC [4]	MIC (M. tuberculosis; 168 h, read-out: M. tb. MIC)	MIC [5]	MIC [6]	half-life (in vitro [7])	fraction unbound (in vitro [8])	MIC [9]	solubility (physchem)	Minimum Inhibitory Concentration, E.c. ΔtolC (E. coli K12 ∆tolC)	MIC [10]	MIC [11]	IC50 [12]	Selective Index (Cytox/MIC) (Vero cells)	MIC [13]	FICI with 9a [16]	MIC in presence of 9a [16]	Type of Interaction [16]	further results
O=[N+]([O-])c1ccc(C2=NOC(c3ccc(N4CCC(Oc5ccc(F)cc5)CC4)nc3)C2)o1 (stereo not shown) [Compound 9e, 5-(6-(4-(4-Fluorophenoxy)piperidin-1-yl)pyridin-3-yl)-3-(5-nitrofuran-2-yl)-4,5-dihydroisoxazole]	> 200 µg/mL	50 µg/mL (≈ 111 µM)	> 200 µg/mL	> 200 µg/mL	0.002 µg/mL	> 200 µg/mL	6.3 µg/mL (≈ 13.9 µM)	1.93 h	0.002	50 µg/mL (≈ 111 µM)	2.2 µg/mL (≈ 4.86 µM)	>200 µg/mL	> 200 µg/mL	50 µg/mL (≈ 111 µM)	7.5 µg/mL (≈ 16.6 µM)	3750	50 µg/mL (≈ 111 µM)	–	–	–	–
O=[N+]([O-])c1ccc(C2=NOC(c3ccc(N4CCC(Oc5ccc(OC(F)(F)F)cc5)CC4)nc3)C2)o1 (stereo not shown) [Compound 9b, 3-(5-Nitrofuran-2-yl)-5-(6-(4-(4-(trifluoromethoxy)phenoxy)piperidin-1-yl)pyridin-3-yl)-4,5-dihydroisoxazole]	200 µg/mL (≈ 386 µM)	200 µg/mL (≈ 386 µM)	> 200 µg/mL	50 µg/mL (≈ 96.4 µM)	0.006 µg/mL	200 µg/mL (≈ 386 µM)	100 µg/mL (≈ 193 µM)	6.91 h	0.001	100 µg/mL (≈ 193 µM)	1.6 µg/mL (≈ 3.09 µM)	>200 µg/mL	200 µg/mL (≈ 386 µM)	> 200 µg/mL	4 µg/mL (≈ 7.72 µM)	667	> 200 µg/mL	–	–	–	Vd (in vivo; iv, 10 mg/kg): 1.53 L/kg; clearance (in vivo; iv, 10 mg/kg): 7 mL/min/kg; half-life (in vivo; iv, 10 mg/kg): 2.48 h; AUC(0-inf) (in vivo; po, 100 mg/kg): 15100 ng·h/mL; Cmax (in vivo; po, 100 mg/kg): 2310 ng/mL; bioavailability (in vivo; po, 100 mg/kg): 8%; fe (fraction excreted unchanged in urine) ([14]; iv, 10 mg/kg): 0.01 (0.00) %; Cmin,24 h ([14]; po, 100 mg/kg): 0.11 (0.11) mg/L; Toxicity by intravenous and oral dosing [15]: non-toxic
CC[C@@H](CO)NCCN[C@@H](CC)CO [Ethambutol]	–	–	–	–	–	–	–	–	–	–	–	–	–	–	–	–	–	0.75–1.00	0.8 µg/mL	Indifference (key: Synergy: synergy (FICI ≤0.5); Indifference: indifference (FICI >0.5–4.0); Antagonism: antagonism (FICI >4.0))	MIC [16]: 1.6 µg/mL
C[C@]1(COc2ccc(N3CCC(Oc4ccc(OC(F)(F)F)cc4)CC3)cc2)Cn2cc([N+](=O)[O-])nc2O1 [OPC-67683]	–	–	–	–	0.01 µg/mL	–	–	27.2 h	0.002	–	–	–	–	–	107 µg/mL (≈ 200 µM)	–	–	–	–	–	MIC (M. tuberculosis; M. tuberculosis, […], read-out: MIC): 0.019 µM; MBC (M. tuberculosis H37Rv): >3; Classification (M. tuberculosis H37Rv; cidal or static from MBC versus MIC): Static (static (MBC/MIC >4))
O=[N+]([O-])c1ccc(C2=NOC(c3ccc(N4CCC(Oc5ccc(F)cc5)CC4)c(F)c3)C2)o1 (stereo not shown) [Compound 9f, 5-(3-Fluoro-4-(4-(4-fluorophenoxy)piperidin-1-yl)phenyl)-3-(5-nitrofuran-2-yl)-4,5-dihydroisoxazole]	25 µg/mL (≈ 53.3 µM)	12.5 µg/mL (≈ 26.6 µM)	> 200 µg/mL	> 200 µg/mL	0.012 µg/mL	50 µg/mL (≈ 107 µM)	> 200 µg/mL	1.74 h	0.002	12.5 µg/mL (≈ 26.6 µM)	0.8 µg/mL (≈ 1.7 µM)	12.5 µg/mL	3.13 µg/mL (≈ 6.67 µM)	25 µg/mL (≈ 53.3 µM)	8 µg/mL (≈ 17 µM)	667	6.3 µg/mL (≈ 13.4 µM)	–	–	–	–
[H]/N=C(/N)N[C@H]1[C@H](O)[C@@H](O)[C@H](O[C@@H]2O[C@@H](C)[C@](O)(C=O)[C@H]2O[C@@H]2O[C@@H](CO)[C@H](O)[C@@H](O)[C@@H]2NC)[C@@H](N/C(N)=N\[H])[C@@H]1O [Streptomycin]	–	–	–	–	–	–	–	–	–	–	–	–	–	–	–	–	–	0.75	0.4 to 0.8 µg/mL	Indifference (key: Synergy: synergy (FICI ≤0.5); Indifference: indifference (FICI >0.5–4.0); Antagonism: antagonism (FICI >4.0))	MIC [16]: 1.6 µg/mL; Classification (M. tuberculosis H37Rv): Cidal (key: Cidal: cidal (MBC/MIC ≤4); Static: static (MBC/MIC >4)); MBC (M. tuberculosis H37Rv): 3.13–6.25; MBC/MIC (M. tuberculosis H37Rv): ≤ 4
O=[N+]([O-])c1ccc(C2=NOC(c3ccc(N4CCC(Oc5ccc(F)cc5)CC4)cc3)C2)o1 (stereo not shown) [Compound 9d, 5-(4-(4-(4-Fluorophenoxy)piperidin-1-yl)phenyl)-3-(5-nitrofuran-2-yl)-4,5-dihydroisoxazole]	> 200 µg/mL	100 µg/mL (≈ 222 µM)	> 200 µg/mL	> 200 µg/mL	0.012 µg/mL	> 200 µg/mL	6.3 µg/mL (≈ 14 µM)	1.43 h	0.009	50 µg/mL (≈ 111 µM)	0.7 µg/mL (≈ 1.55 µM)	>200 µg/mL	6.3 µg/mL (≈ 14 µM)	100 µg/mL (≈ 222 µM)	14.7 µg/mL (≈ 32.6 µM)	1225	> 200 µg/mL	–	–	–	–
CC(=O)NC[C@H]1CN(c2ccc(N3CCOCC3)c(F)c2)C(=O)O1 [Linezolid]	–	–	–	–	–	–	–	–	–	–	–	–	–	–	–	–	–	1.00	0.8 µg/mL	Indifference (key: Synergy: synergy (FICI ≤0.5); Indifference: indifference (FICI >0.5–4.0); Antagonism: antagonism (FICI >4.0))	MIC [16]: 1.6 µg/mL
NCC[C@H](O)C(=O)N[C@@H]1C[C@H](N)[C@@H](O[C@H]2O[C@H](CN)[C@@H](O)[C@H](O)[C@H]2O)[C@H](O)[C@H]1O[C@H]1O[C@H](CO)[C@@H](O)[C@H](N)[C@H]1O [Amikacin]	–	–	–	–	–	–	–	–	–	–	–	–	–	–	–	–	–	–	–	–	MIC [17]: 3.13 to 6.25 µg/mL (≈ 5.34 to 10.7 µM); MIC (M. avium (ATCC 25291)): 12.5 µg/mL (≈ 21.3 µM); MIC (M. kansasii (ATCC 12478)): 6.25 to 12.5 µg/mL (≈ 10.7 to 21.3 µM); MIC (M. fortuitum (ATCC 6841)): 0.78 µg/mL (≈ 1.33 µM)
